Source: US20260217672A1, “BENZAMIDE COMPOUNDS FOR TREATMENT OF BACTERIAL INFECTIONS” (Hoffmann-La Roche Inc., priority 2022, published 2026)
In brackets after ≈: the same amount, converted by molar mass.

Experiments:
[1] = tested on: Escherichia coli ATCC 25922; assay: Minimal Inhibitory Concentration (MIC) broth dilution assay; assay type: cell-based; details: ATCC25922, 20 h, read-out: MIC Escherichia coli ATCC 25922
Method: (§1) The antibacterial activity of the compounds of the present invention was evaluated against the commonly used quality control strain Escherichia coli ATCC 25922 and the rifampin-resistant mutant strain Klebsiella pneumonia ATCC 43816. Both were originally derived from human clinical samples and are available from ATCC (American Type Culture Collection). The in vitro potency of compounds to inhibit Escherichia coli (ATCC 25922) and Klebsiella pneumonia (ATCC 43816) growth was assessed by the MIC (Minimal Inhibitory Concentration) broth dilution method. Specifically compound dilutions were prepared from 10 mM DMSO stock solutions as follows: i) serial 2-fold dilution in 20 μL DMSO were prepared in a master plate (Greiner, Cat No: 651201), ii) 180 μL sterile distilled water was added to each aliquot and iii) 10 μL diluted compounds were transferred into a new assay plate (Costar, 3599).
(§2) Vials of each test microorganisms were maintained frozen in the vapor phase of a liquid nitrogen freezer. Single-use frozen vials of the two strains Escherichia coli ATCC 25922 (KWIKSTIK, 0335K) and Klebsiella pneumonia ATCC 43816, with predetermined CFU/mL, were taken out from the freezer, thawed at room temperature, and diluted in Cation-Adjusted Mueller Hinton Broth (CAMHB) to achieve a final inoculum of 5×10^5 CFU/mL. 90 μL bacteria containing broth was dispensed to the assay plate containing the pre-dispensed compound dilutions and mixed by pipetting 5 times.
(§3) Then the assay plates were incubated for 20 hours at 35° C. in ambient air. Following incubation, the MIC ([…]), the lowest concentration of drug that inhibits visible growth of the microorganism was read with the help of a magnification mirror and recorded.

[2] = tested on: Klebsiella pneumonia ATCC 43816; assay: as above; assay type: cell-based; details: Klebsiella pneumoniae, ATCC43816, 20 h, read-out: MIC Klebsiella pneumoniae ATCC43816
Method: as §1, §2, §3

Structure (SMILES)	MIC [1] [µg/mL]	MIC [2] [µg/mL]
NC1CCN(CCc2ccc(C(=O)Nc3ccc(S(=O)(=O)N4CCN(c5cc(C(F)(F)F)cc(Cl)n5)CC4)cc3)cc2)C1 (centres unmarked) [Example 069, 4-[2-(3-Aminopyrrolidin-1-yl)ethyl]-N-[4-[4-[6-chloro-4-(trifluoromethyl)-2-pyridyl]piperazin-1-yl]sulfonylphenyl]benzamide]	1.2 (≈ 1.88 µM)	2.3 (≈ 3.61 µM)
NCCCNCc1cncc(C(=O)Nc2ccc(S(=O)(=O)N3CCN(c4cc(C(F)(F)F)cc(Cl)n4)CC3)cc2)c1 [Example 060, 5-[(3-Aminopropylamino)methyl]-N-[4-[4-[6-chloro-4-(trifluoromethyl)-2-pyridyl]piperazin-1-yl]sulfonylphenyl]pyridine-3-carboxamide]	0.48 (≈ 0.784 µM)	1.9 (≈ 3.1 µM)
NCCCNCc1ccc(C(=O)Nc2ccc(S(=O)(=O)N3CCN(c4cc(C(F)(F)F)nc(N)n4)CC3)cc2)cc1 [Example 006, 4-[(3-Aminopropylamino)methyl]-N-[4-[4-[2-amino-6-(trifluoromethyl)pyrimidin-4-yl]piperazin-1-yl]sulfonylphenyl]benzamide]	3.7 (≈ 6.24 µM)	15 (≈ 25.3 µM)
Cc1cc(C(F)(F)F)nc(N2CCN(S(=O)(=O)c3ccc(NC(=O)c4cnc5c(c4)CNC5)cc3)CC2)n1 [Example 044, N-[4-[4-[4-methyl-6-(trifluoromethyl)pyrimidin-2-yl]piperazin-1-yl]sulfonylphenyl]-6,7-dihydro-5H-pyrrolo[3,4-b]pyridine-3-carboxamide]	0.91 (≈ 1.66 µM)	1.8 (≈ 3.29 µM)
O=C(O)c1ccccc1C(=O)N1CCc2cc(S(=O)(=O)N3CCN(c4cc(C(F)(F)F)cc(Cl)n4)CC3)ccc21 [Example 042, 2-[5-[4-[6-Chloro-4-(trifluoromethyl)-2-pyridyl]piperazin-1-yl]sulfonylindoline-1-carbonyl]benzoic acid]	0.99 (≈ 1.66 µM)	2 (≈ 3.36 µM)
COc1ccc(CNCCCC2CCNCC2)cc1C(=O)Nc1ccc(S(=O)(=O)N2CCN(c3cc(C(F)(F)F)cc(Cl)n3)CC2)cc1 [Example 081, N-[4-[4-[6-chloro-4-(trifluoromethyl)-2-pyridyl]piperazin-1-yl]sulfonylphenyl]-2-methoxy-5-[[3-(4-piperidyl)propylamino]methyl]benzamide]	1.5 (≈ 2.11 µM)	2.9 (≈ 4.09 µM)
O=C1NC(CNCc2cccc(C(=O)Nc3ccc(S(=O)(=O)N4CCN(c5cc(C(F)(F)F)cc(Cl)n5)CC4)cc3)c2)CO1 (centres unmarked) [Example 084, N-[4-[4-[6-chloro-4-(trifluoromethyl)-2-pyridyl]piperazin-1-yl]sulfonylphenyl]-3-[[(2-oxooxazolidin-4-yl)methylamino]methyl]benzamide]	4.8 (≈ 7.35 µM)	4.8 (≈ 7.35 µM)
NCCCNCc1ccccc1C(=O)Nc1ccc(S(=O)(=O)N2CCN(c3cc(C(F)(F)F)cc(Cl)n3)CC2)cc1 [Example 088, 2-[(3-Aminopropylamino)methyl]-N-[4-[4-[6-chloro-4-(trifluoromethyl)-2-pyridyl]piperazin-1-yl]sulfonylphenyl]benzamide]	1.3 (≈ 2.13 µM)	2.6 (≈ 4.25 µM)
NCCCNCc1cccc(C(=O)Nc2ccc(S(=O)(=O)N3CCN(c4cc(C(F)(F)F)cc(Cl)n4)C4CCC43)cc2)c1 (centres unmarked) [Example 023, 3-[(3-Aminopropylamino)methyl]-N-[4-[[5-[6-chloro-4-(trifluoromethyl)-2-pyridyl]-2,5-diazabicyclo[4.2.0]octan-2-yl]sulfonyl]phenyl]benzamide]	4.2 (≈ 6.59 µM)	4.2 (≈ 6.59 µM)
CCOc1cc(C(F)(F)F)cc(N2CCN(S(=O)(=O)c3ccc(NC(=O)c4ccc(CNCCCN)cc4)cc3)CC2)n1 [Example 010, 4-[(3-Aminopropylamino)methyl]-N-[4-[4-[6-ethoxy-4-(trifluoromethyl)-2-pyridyl]piperazin-1-yl]sulfonylphenyl]benzamide]	5.3 (≈ 8.54 µM)	11 (≈ 17.7 µM)
Cc1cc(C(F)(F)F)cc(N2CCN(S(=O)(=O)c3ccc(NC(=O)c4cnc5c(c4)CNC5)cc3)CC2)n1 [Example 045, N-[4-[4-[6-methyl-4-(trifluoromethyl)-2-pyridyl]piperazin-1-yl]sulfonylphenyl]-6,7-dihydro-5H-pyrrolo[3,4-b]pyridine-3-carboxamide]	0.91 (≈ 1.66 µM)	3.6 (≈ 6.59 µM)
O=C(Nc1ccc(S(=O)(=O)N2CCN(c3cc(C(F)(F)F)cc(Cl)n3)CC2)cc1)c1cccc(N2CCNCC2)c1 [Example 054, N-[4-[4-[6-chloro-4-(trifluoromethyl)-2-pyridyl]piperazin-1-yl]sulfonylphenyl]-3-piperazin-1-yl-benzamide]	0.48 (≈ 0.788 µM)	0.95 (≈ 1.56 µM)
O=C(Nc1ccc(S(=O)(=O)N2CCN(c3cc(C(F)(F)F)cc(Cl)n3)CC2)cc1)c1cccc(CNCC2CCNCC2)c1 [Example 076, N-[4-[4-[6-chloro-4-(trifluoromethyl)-2-pyridyl]piperazin-1-yl]sulfonylphenyl]-3-[(4-piperidylmethylamino)methyl]benzamide]	0.69 (≈ 1.06 µM)	2.7 (≈ 4.15 µM)
NCCCNCCc1ccc(C(=O)Nc2ccc(S(=O)(=O)N3CCN(c4cc(Cl)c(Cl)cn4)CC3)cc2)cc1 [Example 014, 4-[2-(3-Aminopropylamino)ethyl]-N-[4-[4-(4,5-dichloro-2-pyridyl)piperazin-1-yl]sulfonylphenyl]benzamide]	15 (≈ 25.4 µM)	30 (≈ 50.7 µM)
O=C(Nc1ccc(S(=O)(=O)N2CCN(c3cc(C(F)(F)F)cc(Cl)n3)CC2)cc1)c1cccc(N2C[C@H]3CN[C@H]3C2)c1 (stereo in doubt) [Example 052, N-[4-[4-[6-Chloro-4-(trifluoromethyl)-2-pyridyl]piperazin-1-yl]sulfonylphenyl]-3-[3,6-diazabicyclo[3.2.0]heptan-3-yl]benzamide]	1.1 (≈ 1.77 µM)	2.3 (≈ 3.7 µM)
N#Cc1cc(N2CCN(S(=O)(=O)c3ccc(NC(=O)c4ccc(CCNCCCN)cc4)cc3)CC2)nc(C(F)(F)F)c1 [Example 015, 4-[2-(3-Aminopropylamino)ethyl]-N-[4-[4-[4-cyano-6-(trifluoromethyl)-2-pyridyl]piperazin-1-yl]sulfonylphenyl]benzamide]	1.9 (≈ 3.09 µM)	3.8 (≈ 6.17 µM)
COc1cc(S(=O)(=O)N2CCN(c3cc(C(F)(F)F)cc(Cl)n3)CC2)ccc1NC(=O)c1cccc(CNCCCN)c1 [Example 030, 3-[(3-Aminopropylamino)methyl]-N-[4-[4-[6-chloro-4-(trifluoromethyl)-2-pyridyl]piperazin-1-yl]sulfonyl-2-methoxy-phenyl]benzamide]	4 (≈ 6.24 µM)	8 (≈ 12.5 µM)
O=C(Nc1ccc(S(=O)(=O)N2CCN(c3cc(C(F)(F)F)cc(Cl)n3)CC2)cc1)c1cccc(OCC2CNC2)c1 [Example 050, 3-(Azetidin-3-ylmethoxy)-N-[4-[4-[6-chloro-4-(trifluoromethyl)-2-pyridyl]piperazin-1-yl]sulfonylphenyl]benzamide]	1 (≈ 1.64 µM)	1 (≈ 1.64 µM)
Cn1ncc(C(=O)N2CCc3cc(S(=O)(=O)N4CCN(c5cc(C(F)(F)F)cc(Cl)n5)CC4)ccc32)c1C(=O)O [Example 035, 4-[5-[4-[6-Chloro-4-(trifluoromethyl)-2-pyridyl]piperazin-1-yl]sulfonylindoline-1-carbonyl]-2-methyl-pyrazole-3-carboxylic acid]	3.7 (≈ 6.18 µM)	7.5 (≈ 12.5 µM)
